From US11759520B1, “Theranostics for protein misfolding diseases” (UNM Rainforest Innovations, priority 2018, dated 2023)

What was measured:
Aβ40 fibrils [1] = target: T1, Aβ40 fibrils (Homo sapiens, UniProt P05067); assay: Fluorescence sensing of Aβ40 fibrils over monomers (ADF, LOD); assay type: binding; details: 5 to 1 protein to sensor molar ratio
T1 construct: mixed with Aβ40 fibrils (5 μM) incubated in Tris pH 8.0 (A) or PB pH 7.4 (B)
Experimental: Quantitative assessment of OPE sensor performance towards A1340 fibrils at a 5 to 1 protein to sensor molar ratio was analyzed by calculating an amyloid detector factor using the equation shown in FIG. 13, where F(dye-in-buffer), F(dye+fibrils) and F(dye+monomers) are the integrated emission intensities for sensor alone, sensor in the presence of fibrils, and sensor in the presence of monomers, respectively. Using this equation, positive ADF values indicate selective sensing of fibrils over monomers, while negative ADF values indicate selective sensing of monomers. ADF values close to zero indicate no selective sensing.

Aβ42 peptide = target: T2, Aβ42 peptide (Homo sapiens, UniProt P05067); assay: Fluorescence spectra with unincubated (oligomeric) and incubated (fibrillar) Aβ42 peptide; assay type: binding; details: ThT 20 μM, OPE 1 μM, Aβ42 5 μM
T2 construct: in the presence of unincubated (oligomeric) and incubated (fibrillar) Aβ42 peptide (5 μM)
T2 sequence (P05067 672-713 limits assumed): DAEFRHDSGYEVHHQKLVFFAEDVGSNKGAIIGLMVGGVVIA

α-synuclein = assay: Excitation and emission spectra with α-synuclein isoforms; assay type: binding; details: 6 days of incubation
Aβ40 fibrils [2] = target: T1, Aβ40 fibrils; assay: Fluorescence sensing of Aβ40 fibrils over monomers (ADF, LOD); assay type: binding
Aβ40 monomers = Aβ40 monomers (Homo sapiens, UniProt P05067); assay: Photo-oxidation of Aβ40 monomers (DNPH dot blot, RP-HPLC, MS, amino acid analysis); assay type: biochemical; details: 4 hour irradiation
Chain of Aβ40 monomers (P05067 672-711 limits assumed): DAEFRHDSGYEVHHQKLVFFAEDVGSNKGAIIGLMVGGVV
Experimental: To evaluate the potency of OPE to selectively photo-oxidize Aβ40 fibrils over the monomeric counterpart, the oxidation state of both Aβ40 fibrils and monomers were characterized and were compared to MB. The carbonyl content of the protein was monitored by DNPH dot blot, which increases as a result of histidine photooxidation.^20
DNPH dot blot was carried out on Aβ40 fibrils and monomers incubated in the dark or under irradiation between 0 to 6 hours (FIGS. 9A and 9B). […] Slightly higher carbonyl content in Aβ fibrils at time 0 h in the presence of MB could be due to short light exposure during sample preparation causing MB to photosensitize the oxidation of Aβ fibrils.
To confirm this observation, Aβ40 monomers were analyzed by reverse phase HPLC (RP-HPLC), mass spectrometry (MS), and amino acid analysis (FIGS. 10A and B), before and after irradiation in the presence of OPE1− and MB.

Aβ40 fibrils [3] = target: T1, Aβ40 fibrils; assay: Effect of oxidation on Aβ40 fibril morphology and secondary structure (TEM, CD); assay type: biochemical; details: irradiated with photosensitizer
[4] = Aβ40 fibrils produced in pH 7.4 PB
[5] = Aβ40 fibrils produced in pH 8.0 Tris

T1 sequence (P05067 672-711 limits assumed): as above

| SMILES | ADF (Amyloid Detection Factor), Aβ40 in PB (Aβ40 fibrils [1]; [4]) | ADF (Amyloid Detection Factor), Aβ40 in Tris (Aβ40 fibrils [1]; [5]) | fluorescence increase with fibrillar (incubated) Aβ42 (Aβ42 peptide) | fluorescence increase with oligomeric (unincubated, prefibrillar) Aβ42 (Aβ42 peptide) | detection of prefibrillar α-synuclein aggregates (α-synuclein) | LOD (Limit of Detection), Aβ40 in PB (Aβ40 fibrils [2]; [4]) | LOD (Limit of Detection), Aβ40 in Tris (Aβ40 fibrils [2]; [5]) | changes of Aβ40 monomers after irradiation (Aβ40 monomers) | Aβ40 fibril morphology after irradiation (TEM) (Aβ40 fibrils [3]) |
| --- | --- | --- | --- | --- | --- | --- | --- | --- | --- |
| Cc1ccc2c(c1)sc(-c1ccc(N(C)C)cc1)[n+]2C.[Cl-] [ThT, thioflavin T, reference compound] | 0.23 +/− 0.03 | 0.53 +/− 0.1 | large fluorescence increases | small fluorescence increases | only able to detect A53T aggregates after 6 days of incubation | 0.69 ± 0.05 µM | 0.65 ± 0.05 µM | – | – |
| CN(C)c1ccc2nc3ccc(=[N+](C)C)cc-3sc2c1 [MB, methylene blue, reference compound] | – | – | – | – | – | – | – | become more hydrophilic, present higher m/z ratio, and have a lower histidine content | fibrils dissociated and broke into shorter structures |
